What was measured:
Test in all cases: Kinase profiling in a biochemical assay panel (mobility shift assays and ELISA), %-inhibition at 1 μM; selectivity entropy
[1] = target: panel of more than 300 wild-type and mutant kinases (313 kinase panel) (Homo sapiens, UniProt P04629)
[2] = target: panel of more than 300 wild-type and mutant kinases (313 kinase panel) (Homo sapiens, UniProt Q07912)
[3] = target: panel of more than 300 wild-type and mutant kinases (313 kinase panel) (Homo sapiens, UniProt P16234, T674I); details: kinase PDGFRα(T674I); 1 μM
[4] = target: panel of more than 300 wild-type and mutant kinases (313 kinase panel) (Homo sapiens, UniProt P04626); details: kinase HER2; compound at 1 μM
[5] = target: T1, panel of more than 300 wild-type and mutant kinases (313 kinase panel) (Homo sapiens, UniProt Q13470)
T1 sequence (Q13470 1-666): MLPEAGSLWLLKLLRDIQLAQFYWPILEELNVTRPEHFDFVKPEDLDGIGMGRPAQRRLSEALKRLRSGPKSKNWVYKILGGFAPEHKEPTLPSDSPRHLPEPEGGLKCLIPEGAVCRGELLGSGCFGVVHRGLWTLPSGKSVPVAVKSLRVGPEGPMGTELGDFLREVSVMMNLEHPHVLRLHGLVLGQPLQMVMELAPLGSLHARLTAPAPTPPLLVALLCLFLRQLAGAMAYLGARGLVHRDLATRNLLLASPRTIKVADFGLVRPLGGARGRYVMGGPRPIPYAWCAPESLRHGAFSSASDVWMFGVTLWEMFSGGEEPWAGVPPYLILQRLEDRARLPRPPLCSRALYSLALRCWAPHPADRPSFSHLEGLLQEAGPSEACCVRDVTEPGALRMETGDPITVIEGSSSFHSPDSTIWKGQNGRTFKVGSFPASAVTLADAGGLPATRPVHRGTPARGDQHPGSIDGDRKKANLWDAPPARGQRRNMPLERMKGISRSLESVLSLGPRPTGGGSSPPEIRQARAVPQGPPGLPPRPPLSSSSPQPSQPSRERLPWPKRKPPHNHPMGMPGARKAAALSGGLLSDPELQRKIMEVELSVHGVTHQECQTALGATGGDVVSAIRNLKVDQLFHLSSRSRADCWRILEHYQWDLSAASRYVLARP

[6] = target: panel of more than 300 wild-type and mutant kinases (313 kinase panel) (Homo sapiens, UniProt Q9H4B4)
[7] = target: panel of more than 300 wild-type and mutant kinases (313 kinase panel) (Homo sapiens, UniProt P08631)
[8] = target: panel of more than 300 wild-type and mutant kinases (313 kinase panel) (Homo sapiens, UniProt P49840)
[9] = target: panel of more than 300 wild-type and mutant kinases (313 kinase panel) (Homo sapiens, UniProt Q9H422)
[10] = target: T2, panel of more than 300 wild-type and mutant kinases (313 kinase panel) (Homo sapiens, UniProt Q9Y2U5)
T2 sequence (Q9Y2U5 1-619): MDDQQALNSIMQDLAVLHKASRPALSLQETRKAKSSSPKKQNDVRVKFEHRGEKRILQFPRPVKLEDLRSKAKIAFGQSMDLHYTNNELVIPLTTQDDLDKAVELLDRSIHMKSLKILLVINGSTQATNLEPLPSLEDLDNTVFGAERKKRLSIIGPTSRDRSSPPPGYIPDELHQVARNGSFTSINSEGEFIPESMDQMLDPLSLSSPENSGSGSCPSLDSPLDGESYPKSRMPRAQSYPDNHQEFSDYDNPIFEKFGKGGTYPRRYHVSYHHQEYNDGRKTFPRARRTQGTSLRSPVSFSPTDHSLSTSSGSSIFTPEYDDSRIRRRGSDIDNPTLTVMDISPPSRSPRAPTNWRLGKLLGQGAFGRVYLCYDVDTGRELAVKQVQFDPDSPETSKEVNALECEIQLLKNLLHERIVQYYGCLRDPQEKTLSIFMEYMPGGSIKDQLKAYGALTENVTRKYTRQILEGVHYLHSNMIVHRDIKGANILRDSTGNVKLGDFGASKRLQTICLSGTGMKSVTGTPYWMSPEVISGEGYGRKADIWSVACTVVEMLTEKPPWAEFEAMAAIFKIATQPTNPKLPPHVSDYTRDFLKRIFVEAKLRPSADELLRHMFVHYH

[11] = target: panel of more than 300 wild-type and mutant kinases (313 kinase panel) (Homo sapiens, UniProt P27361)
[12] = target: panel of more than 300 wild-type and mutant kinases (313 kinase panel) (Homo sapiens, UniProt P19784)
[13] = target: panel of more than 300 wild-type and mutant kinases (313 kinase panel) (Homo sapiens, UniProt Q15418)
[14] = kinase MAP3K2, compound at 1 μM

Chain of panel of more than 300 wild-type and mutant kinases (313 kinase panel) (Homo sapiens, UniProt P08631) (P08631 whole entry, change not shown): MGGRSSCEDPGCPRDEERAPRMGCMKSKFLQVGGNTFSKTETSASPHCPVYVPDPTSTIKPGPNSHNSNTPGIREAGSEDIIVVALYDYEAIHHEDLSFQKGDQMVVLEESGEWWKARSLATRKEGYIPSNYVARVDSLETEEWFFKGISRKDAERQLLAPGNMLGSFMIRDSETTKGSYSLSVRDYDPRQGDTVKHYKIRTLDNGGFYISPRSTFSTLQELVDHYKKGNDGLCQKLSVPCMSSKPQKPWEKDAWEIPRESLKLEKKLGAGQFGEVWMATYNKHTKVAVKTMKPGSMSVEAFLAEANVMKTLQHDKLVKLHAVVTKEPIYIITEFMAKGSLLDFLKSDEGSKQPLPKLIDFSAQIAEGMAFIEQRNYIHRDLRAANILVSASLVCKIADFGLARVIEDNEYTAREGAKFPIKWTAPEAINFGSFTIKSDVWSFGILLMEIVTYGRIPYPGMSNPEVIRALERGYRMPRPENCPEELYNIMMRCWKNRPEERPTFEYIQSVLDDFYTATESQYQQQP
Chain of panel of more than 300 wild-type and mutant kinases (313 kinase panel) (Homo sapiens, UniProt P16234, T674I) (P16234 24-1089 T674I): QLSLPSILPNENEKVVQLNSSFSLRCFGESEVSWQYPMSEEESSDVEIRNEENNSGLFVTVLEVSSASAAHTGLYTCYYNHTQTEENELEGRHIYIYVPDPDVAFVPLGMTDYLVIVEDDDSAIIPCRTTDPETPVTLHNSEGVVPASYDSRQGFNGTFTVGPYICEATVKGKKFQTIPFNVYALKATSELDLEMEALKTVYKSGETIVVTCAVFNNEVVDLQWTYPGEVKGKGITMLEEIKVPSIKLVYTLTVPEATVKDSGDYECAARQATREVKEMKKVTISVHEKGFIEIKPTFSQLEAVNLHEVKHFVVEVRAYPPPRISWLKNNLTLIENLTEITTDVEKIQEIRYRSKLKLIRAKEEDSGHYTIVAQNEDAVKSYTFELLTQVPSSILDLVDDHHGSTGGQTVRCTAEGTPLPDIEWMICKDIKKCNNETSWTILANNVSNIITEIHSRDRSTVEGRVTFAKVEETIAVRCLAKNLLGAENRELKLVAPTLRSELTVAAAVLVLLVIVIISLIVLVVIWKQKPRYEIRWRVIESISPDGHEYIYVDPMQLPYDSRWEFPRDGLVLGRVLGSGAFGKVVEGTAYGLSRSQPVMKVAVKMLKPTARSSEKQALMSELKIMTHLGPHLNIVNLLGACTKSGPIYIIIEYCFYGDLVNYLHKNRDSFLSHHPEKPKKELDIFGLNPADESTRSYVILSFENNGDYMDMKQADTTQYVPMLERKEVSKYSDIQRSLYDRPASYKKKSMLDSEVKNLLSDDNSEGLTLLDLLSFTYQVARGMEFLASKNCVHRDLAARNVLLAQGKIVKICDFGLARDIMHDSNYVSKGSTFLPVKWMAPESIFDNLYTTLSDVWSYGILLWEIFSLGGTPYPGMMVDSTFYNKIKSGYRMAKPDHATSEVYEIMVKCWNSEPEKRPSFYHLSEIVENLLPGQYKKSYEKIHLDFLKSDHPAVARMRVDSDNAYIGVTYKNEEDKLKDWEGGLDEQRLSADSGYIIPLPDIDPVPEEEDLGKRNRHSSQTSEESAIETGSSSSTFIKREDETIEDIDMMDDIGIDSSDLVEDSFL
Chain of panel of more than 300 wild-type and mutant kinases (313 kinase panel) (Homo sapiens, UniProt Q9H4B4) (Q9H4B4 whole entry, change not shown): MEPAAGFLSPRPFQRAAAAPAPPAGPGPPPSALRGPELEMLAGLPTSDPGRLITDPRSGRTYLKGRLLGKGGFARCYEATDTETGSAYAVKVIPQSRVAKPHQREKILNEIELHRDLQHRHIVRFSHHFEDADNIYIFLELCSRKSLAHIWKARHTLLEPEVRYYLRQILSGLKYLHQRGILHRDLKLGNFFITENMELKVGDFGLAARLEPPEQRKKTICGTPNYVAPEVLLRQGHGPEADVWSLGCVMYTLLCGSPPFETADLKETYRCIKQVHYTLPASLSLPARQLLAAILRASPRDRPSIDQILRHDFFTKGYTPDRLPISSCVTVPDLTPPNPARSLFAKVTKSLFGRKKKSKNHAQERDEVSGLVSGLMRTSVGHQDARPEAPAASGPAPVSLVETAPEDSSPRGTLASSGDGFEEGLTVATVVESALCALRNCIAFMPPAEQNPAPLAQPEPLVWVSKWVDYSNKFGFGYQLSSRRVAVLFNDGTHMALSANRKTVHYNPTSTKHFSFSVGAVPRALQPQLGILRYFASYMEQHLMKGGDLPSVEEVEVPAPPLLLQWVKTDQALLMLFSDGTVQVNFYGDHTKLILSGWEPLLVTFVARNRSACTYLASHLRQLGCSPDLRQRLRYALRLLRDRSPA
Chain of panel of more than 300 wild-type and mutant kinases (313 kinase panel) (Homo sapiens, UniProt P04626) (P04626 23-1255, change not shown): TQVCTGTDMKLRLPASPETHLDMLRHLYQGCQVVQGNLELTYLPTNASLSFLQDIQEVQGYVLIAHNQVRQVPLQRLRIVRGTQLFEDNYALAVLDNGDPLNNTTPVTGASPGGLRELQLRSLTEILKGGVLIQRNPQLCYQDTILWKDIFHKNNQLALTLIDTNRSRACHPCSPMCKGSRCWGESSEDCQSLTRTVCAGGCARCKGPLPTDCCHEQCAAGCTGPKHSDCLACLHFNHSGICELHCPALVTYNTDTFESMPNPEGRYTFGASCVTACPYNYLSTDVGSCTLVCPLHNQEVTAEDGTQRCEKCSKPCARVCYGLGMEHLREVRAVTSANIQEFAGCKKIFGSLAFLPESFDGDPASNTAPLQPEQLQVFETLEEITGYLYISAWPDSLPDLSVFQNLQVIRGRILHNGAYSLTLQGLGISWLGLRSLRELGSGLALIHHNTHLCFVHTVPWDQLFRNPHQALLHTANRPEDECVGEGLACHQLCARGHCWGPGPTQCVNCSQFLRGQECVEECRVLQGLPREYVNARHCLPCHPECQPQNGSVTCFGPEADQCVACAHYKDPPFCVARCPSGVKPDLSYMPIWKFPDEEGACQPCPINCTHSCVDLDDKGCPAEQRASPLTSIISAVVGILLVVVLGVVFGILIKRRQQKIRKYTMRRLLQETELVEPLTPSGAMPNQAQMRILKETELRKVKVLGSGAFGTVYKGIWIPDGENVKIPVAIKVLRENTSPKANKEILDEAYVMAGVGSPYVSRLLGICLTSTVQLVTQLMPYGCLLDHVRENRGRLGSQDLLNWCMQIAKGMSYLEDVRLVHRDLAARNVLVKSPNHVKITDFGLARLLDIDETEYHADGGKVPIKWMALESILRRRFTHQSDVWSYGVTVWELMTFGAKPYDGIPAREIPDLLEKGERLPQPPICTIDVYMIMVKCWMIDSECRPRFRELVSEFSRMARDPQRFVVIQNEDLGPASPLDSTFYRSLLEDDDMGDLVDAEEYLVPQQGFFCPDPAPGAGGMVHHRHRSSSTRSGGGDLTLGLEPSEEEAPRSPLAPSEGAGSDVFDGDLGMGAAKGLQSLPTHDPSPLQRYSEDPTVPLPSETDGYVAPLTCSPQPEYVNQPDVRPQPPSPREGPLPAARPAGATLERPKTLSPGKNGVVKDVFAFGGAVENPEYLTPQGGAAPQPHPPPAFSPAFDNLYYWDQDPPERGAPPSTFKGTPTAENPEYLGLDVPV
Chain of panel of more than 300 wild-type and mutant kinases (313 kinase panel) (Homo sapiens, UniProt P27361) (P27361 whole entry, change not shown): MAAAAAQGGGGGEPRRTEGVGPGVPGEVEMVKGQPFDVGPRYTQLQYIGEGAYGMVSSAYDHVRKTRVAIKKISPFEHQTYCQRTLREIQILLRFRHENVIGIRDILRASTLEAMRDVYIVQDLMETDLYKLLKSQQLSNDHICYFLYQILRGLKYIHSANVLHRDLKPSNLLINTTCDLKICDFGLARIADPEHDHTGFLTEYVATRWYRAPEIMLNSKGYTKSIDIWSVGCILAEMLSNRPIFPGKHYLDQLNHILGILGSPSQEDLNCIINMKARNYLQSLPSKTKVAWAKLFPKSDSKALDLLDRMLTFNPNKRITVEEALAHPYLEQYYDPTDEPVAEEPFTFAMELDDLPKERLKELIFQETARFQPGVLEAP
Chain of panel of more than 300 wild-type and mutant kinases (313 kinase panel) (Homo sapiens, UniProt Q07912) (Q07912 whole entry, stated change not applied): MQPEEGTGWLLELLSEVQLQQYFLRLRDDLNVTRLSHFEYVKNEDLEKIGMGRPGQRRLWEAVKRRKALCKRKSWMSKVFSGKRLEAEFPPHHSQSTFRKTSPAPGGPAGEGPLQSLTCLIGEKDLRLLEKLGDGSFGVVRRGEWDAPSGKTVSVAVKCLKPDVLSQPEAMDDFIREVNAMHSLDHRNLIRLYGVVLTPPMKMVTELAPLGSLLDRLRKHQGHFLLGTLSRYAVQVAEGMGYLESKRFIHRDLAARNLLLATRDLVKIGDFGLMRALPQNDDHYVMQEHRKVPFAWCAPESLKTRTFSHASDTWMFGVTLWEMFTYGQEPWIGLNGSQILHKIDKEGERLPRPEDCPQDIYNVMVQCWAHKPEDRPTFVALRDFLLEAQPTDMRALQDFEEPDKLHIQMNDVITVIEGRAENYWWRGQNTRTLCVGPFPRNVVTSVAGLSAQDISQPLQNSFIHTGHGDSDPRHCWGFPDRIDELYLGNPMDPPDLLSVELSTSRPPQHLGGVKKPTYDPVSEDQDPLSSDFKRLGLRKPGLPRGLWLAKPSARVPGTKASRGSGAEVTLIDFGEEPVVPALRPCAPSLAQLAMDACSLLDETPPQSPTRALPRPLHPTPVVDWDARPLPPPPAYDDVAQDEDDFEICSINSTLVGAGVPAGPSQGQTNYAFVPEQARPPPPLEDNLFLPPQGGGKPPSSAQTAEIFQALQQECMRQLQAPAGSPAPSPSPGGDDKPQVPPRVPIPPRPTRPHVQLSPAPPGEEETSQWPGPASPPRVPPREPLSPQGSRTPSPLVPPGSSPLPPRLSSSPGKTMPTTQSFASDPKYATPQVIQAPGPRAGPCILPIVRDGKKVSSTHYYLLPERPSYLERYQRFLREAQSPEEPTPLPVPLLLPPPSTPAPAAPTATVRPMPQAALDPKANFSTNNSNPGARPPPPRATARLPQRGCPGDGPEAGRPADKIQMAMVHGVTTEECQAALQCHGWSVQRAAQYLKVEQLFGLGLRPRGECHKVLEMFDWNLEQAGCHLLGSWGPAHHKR

Structure (SMILES) | %-inhibition of TRKA ([1]; kinase TRKA, 1 μM) [%] | %-inhibition, ACK ([2]; kinase ACK, 1 μM compound) [%] | %-inhibition of PDGFRα(T674I) [3] [%] | %-inhibition of HER2 [4] [%] | %-inhibition of TNK1 ([5]; kinase TNK1, 1 μM) [%] | %-inhibition of PLK3 ([6]; kinase PLK3, 1 μM) [%] | %-inhibition of HCK ([7]; kinase HCK, compound at 1 μM) [%] | %-inhibition of HIPK3 ([9]; kinase HIPK3, compound at 1 μM) [%] | %-inhibition, CK2α2/β ([12]; kinase CK2α2/β, 1 μM compound) [%] | %-inhibition of GSK3α ([8]; kinase GSK3α, compound at 1 μM) [%] | %-inhibition of MAP3K2 [10, 14] [%] | %-inhibition of Erk1 ([11]; kinase Erk1, compound at 1 μM) [%] | %-inhibition of RSK1 ([13]; kinase RSK1, 1 μM) [%] | other results
COc1cc(Nc2c(C#N)cnc3cc(OCCCN4CCN(C)CC4)c(OC)cc23)c(Cl)cc1Cl [bosutinib] | 88 | 97 | 57 | 88 | 11 | 0.877 | 89 | -3.66 | – | – | – | – | – | %-inhibition of GSK3α ([8]; 1 µM): 9%; %-inhibition of MAP3K2 ([10]; 1 µM): 93%; %-inhibition of Erk1 ([11]; 1 µM): 1.12%
COc1cc2nccc(Oc3ccc(NC(=O)C4(C(=O)Nc5ccc(F)cc5)CC4)cc3)c2cc1OC [cabozantinib] | 100 | 30 | 97 | 10 | 89 | -1.07 | 95 | 67 | 9 | -10 | 9 | -1.33 | -7.61 | –
C[C@@H](Oc1cc(-c2cnn(C3CCNCC3)c2)cnc1N)c1c(Cl)ccc(F)c1Cl [crizotinib] | 103 | – | 95 | -0.714 | 41 | -2.24 | 26 | -6 | -10 | -2.56 | – | -2 | -5 | –
CC(C)(C)c1nc(-c2cccc(NS(=O)(=O)c3c(F)cccc3F)c2F)c(-c2ccnc(N)n2)s1 [dabrafenib] | – | 24 | 18 | 50 | 100 | – | 57 | 65 | – | – | 71 | -1.62 | – | –
Cc1nc(Nc2ncc(C(=O)Nc3c(C)cccc3Cl)s2)cc(N2CCN(CCO)CC2)n1 [dasatinib] | – | – | – | – | 4.31 | 10 | – | – | -4.67 | – | – | – | – | –
C#Cc1cccc(Nc2ncnc3cc(OCCOC)c(OCCOC)cc23)c1 [erlotinib] | – | – | – | – | – | – | – | – | – | – | – | – | – | %-inhibition of TRKA ([1]; 1 µM): 14%; %-inhibition, ACK ([2]; 1 µM): 37%; %-inhibition, CK2α2/β ([12]; 1 µM): -5.48%; %-inhibition of TNK1 ([5]; 1 µM): 44%; %-inhibition of PLK3 ([6]; 1 µM): 6%; %-inhibition of HCK ([7]; 1 µM): 26%; %-inhibition of GSK3α ([8]; 1 µM): -4%; %-inhibition of HIPK3 ([9]; 1 µM): 10%; %-inhibition of MAP3K2 ([10]; 1 µM): 14%; %-inhibition of Erk1 ([11]; 1 µM): 0.357%; %-inhibition of RSK1 ([13]; 1 µM): 9%
CO[C@H]1C[C@@H]2CC[C@@H](C)[C@@](O)(O2)C(=O)C(=O)N2CCCC[C@H]2C(=O)O[C@H]([C@H](C)C[C@@H]2CC[C@@H](OCCO)[C@H](OC)C2)CC(=O)[C@H](C)/C=C(\C)[C@@H](O)[C@@H](OC)C(=O)[C@H](C)C[C@H](C)/C=C/C=C/C=C/1C [everolimus] | -3.53 | -4.62 | 0.248 | -2.5 | -0.4 | -1.66 | -2.7 | -8 | -1.28 | -14 | 7.56 | -0.906 | -13 | –
O=S(=O)(c1cccc2cnccc12)N1CCCNCC1 [fasudil] | -2.44 | 0.581 | 21 | 0.678 | – | -4.66 | -2.15 | -0.764 | -3.75 | 0.911 | -15 | -3 | – | –
Cc1ccc(Nc2nccc(N(C)c3ccc4c(C)n(C)nc4c3)n2)cc1S(N)(=O)=O [pazopanib] | – | 13 | – | 1.07 | 42 | 9 | 67 | 3 | 0.17 | 6.5 | 46 | -3.79 | 16 | –
Cc1ccc(C(=O)Nc2ccc(CN3CCN(C)CC3)c(C(F)(F)F)c2)cc1C#Cc1cnc2cccnn12 [ponatinib] | 101 | 99 | 99 | 88 | 100 | -11 | 98 | 27 | – | – | 79 | – | 32 | –
CCN(CC)CCNC(=O)c1c(C)[nH]c(/C=C2\C(=O)Nc3ccc(F)cc32)c1C [sunitinib] | 98 | – | – | – | – | – | – | – | 25 | – | – | – | – | –
COc1cc2c(Nc3ccc(Br)cc3F)ncnc2cc1OCC1CCN(C)CC1 [vandetanib] | 46 | 24 | 91 | 67 | 23 | -6 | – | -11 | -7 | -5.37 | 14 | -1.55 | – | –
